Assay results published in patent publication US20200368198A1, “METHODS FOR INCREASING FERTILITY” (NEWSOUTH INNOVATIONS PTY LIMITED, priority 2017, published 2020).
Several values for one entry are separate records, joined by “and”; a condition that tells them apart may be missing. Equal values may be shown once. Entries after “also recorded” stand apart in the source; their conditions may differ.

Tests used:
oocytes [1] = assay: Meiotic progression (GVBD, PBE) of harvested oocytes, doxorubicin with or without NMN; type: in vivo, mice; details: doxorubicin and/or NMN
Source text: Once harvested from ovaries, oocytes were stored in IBMX media to prevent progression into meiosis.

C57BL6 female mice [2] = assay: Mating trial after doxorubicin with or without NMN co-treatment; type: in vivo; details: for Number of mating rounds required to achieve pregnancy: the values are: cumulative % of females pregnant by round
Method: Following oocyte counting and analysis of oocyte meiotic progression, as well as a separate cohort of animals for histological ovarian analysis, a separate cohort of animals were treated as indicated, and mated with stud males of proven track record, to assess the ability of animals to deliver live births following chemotherapy treatment in the presence of absence of NMN co-treatment.

C57BL6 female mice [3] = assay: Cumulus oocyte complex yield after PMSG, cisplatin with or without NMN; type: in vivo; details: per mouse, single dose cisplatin 5 mg/kg i.p. and/or NMN 2 g/L drinking water, two months later
Method: (§1) To assess oocyte yield, and mice were hormonally stimulated to superovulated by intraperitoneal injection with 7.5 IU/mL of Pregnant Mare's Serum Gonadotropin (PMSG) (Folligon; Intervet, Boxmeer, Holland) to stimulate follicular growth. After 44-46 hours, ovaries were collected in HEPES-buffered minimum essential medium (aMEM; Gibco Life Technologies, Grand Island, N.Y.) supplemented with 50 µM of 3-isobuty-1-methylxanthine (IBMX) (Sigma aldrich, NSW, AU) (M2 medium) to maintain meitotic arrest at germinal vesicle stage. Cumulus oocyte complexes (COCs) were isolated from preovulatory follicles using a 27-gauge needle and collected using flame-pulled borosilicate Pasteur pipettes in M2 medium supplemented with 3 mg/ml bovine serum albumin (BSA; Sigma Aldrich, St. Louis, Mo.) and 100 μM IBMX (Sigma Aldrich). Cumulus oocyte complexes (COCs) were mechanically denuded of cumulus cells by pipetting, and the denuded oocytes were transferred to another dish containing a drop of fresh M2-medium plus IBMX on heat block with 37° C. with lid to protect oocytes from light. […]

oocytes [4] = assay: Meiotic progression (GVBD, PBE) of harvested oocytes, cisplatin with or without NMN; type: in vivo, mice; details: cisplatin and/or NMN
Method: Once harvested from ovaries, oocytes were stored in IBMX media to prevent progression into meiosis. Once released from IBMX, meiotic progression was assessed by the proportions of oocytes achieving germinal vesicle breakdown (GVBD) for meiosis I, and polar body extrusion (PBE) for meiosis II, with results shown in FIGS. 7 and 8 and Tables 2 and 3.
Again, as in Example 2 above, the oocytes which were harvested from these studies were allowed to progress down meiosis, in order to assess meiotic progression rates (FIGS. 16 and 17 and Table 7 and 8).

C57BL6 females = assay: Reversal design: pups born after chemotherapy followed by NMN; type: in vivo, mice; details: cisplatin 5 mg/kg i.p., NMN delivered well after chemotherapy; 6 mating rounds
Source text: In Examples 2-4, it was shown that co-treatment with NMN during chemotherapy treatment could protect against infertility. Next, we decided to investigate whether NMN treatment delivered some time following chemotherapy treatment could actively reverse chemotherapy induced infertility. […] The rationale of this experimental design is to investigate whether NMN has the ability to induce regeneration of the ovary. According to the standard dogma of reproductive biology, mammals are born with a set number of follicles which are slowly released as oocytes over the course of a lifetime, with the ovaries incapable of regenerating new follicles.

[5] = tested on: C57BL6 and SwissTacAusb female mice; assay: Oocyte yield in aged mice treated with NMN; type: in vivo; details: 15 month-old mice, NMN drinking water 2 g/L, 4 weeks, versus untreated
Method: as §1, with “Aldrich).” for “Aldrich). Cumulus oocyte complexes (COCs) were mechanically denuded of cumulus cells by pipetting, and the denuded oocytes were transferred to another dish containing a drop of fresh M2-medium plus IBMX on heat block with 37° C. with lid to protect oocytes from light.”
Systemic treatment with the NAD^+ precursor nicotinamide mononucleotide (NMN) increases intracellular NAD^+ levels, and we hypothesised that NMN treatment could restore the activity of SIRT2 to stabilise BubR1 and maintain oocyte reserve and competence into later ages. […] Animals were super-ovulated, and oocyte yield was assessed. […]

oocytes / blastocysts = assay: IVF of oocytes from 8 month old NMN treated mice: blastocyst formation and inner cell mass; type: in vivo
Method: In addition, the length of treatment with NAD raising compounds (e.g. NMN) positively correlates with improved fertility. Eight month old ex-breeder C57BL6 female mice, which are at an age of declining natural fertility, were treated with NMN through addition to drinking water (2 g/L) for 48 hours, 1 week, 2 weeks, and 4 weeks (6 per group). Animals were then treated with PMSG and then hCG to promote oocyte maturation and ovulation. MII stage oocytes were collected from the oviduct, and fertilized in vitro. Oocytes were then cultured into blastocysts for the next 6 days, at which point these blastocysts were subjected to differential staining to assess blastocyst cell number in either the inner cell mass or the trophectoderm. Inner cell mass cell number is accepted as an important predictor of implantation success rates.
This was measured through performing IVF in oocytes obtained from 8 month old C57BL6 ex-breeder female mice, which were assigned to the following 4 groups (6 per group) . . . • Daily oral gavage, saline control, normal drinking water • Daily oral gavage, 10 mg NMN in saline, normal drinking water • No gavage, normal (control) drinking water • No gavage, NMN in drinking water (2 g/L)
These animals were at an age at which fertility normally declines in this species. Animals were maintained on each of the above treatments for 10 days. Animals were then treated with PMSG and then hCG to promote oocyte maturation and ovulation. MII stage oocytes were collected from the oviduct, and fertilized in vitro. Oocytes were then cultured into blastocysts for the next 6 days, and blastocyst formation rates were assessed. Results at days 5 and six are shown in FIGS. 38 and 39, respectively. Blastocyst formation and hatching were assessed as indicators of developmental competence. Blastocyst formation is a clinically relevant outcome: during clinical IVF, blastocyst stage and hatching blastocyst stage embryos are preferentially transferred over earlier stage embryos into a person wishing to obtain a pregnancy.

## NC(=O)c1ccc[n+]([C@@H]2O[C@H](COP(=O)([O-])O)[C@@H](O)[C@H]2O)c1 [NMN, nicotinamide mononucleotide]
Oocytes [1]; 1 h after release from IBMX
  Proportion of harvested oocytes achieving germinal vesicle breakdown: 17 % of total
Oocytes [1]; 2 h after release from IBMX
  Proportion of harvested oocytes achieving germinal vesicle breakdown: 67 % of total
Oocytes [1]; 14 hr following GVBD
  Proportions of oocytes achieving polar body extrusion: 79
Oocytes [1]; 16 hr following GVBD
  Proportions of oocytes achieving polar body extrusion: 50
Oocytes [1]; 20 hr following GVBD
  Proportions of oocytes achieving polar body extrusion: 80
C57BL6 female mice [2]; Round 0
  Number of mating rounds required to achieve pregnancy: 0%
C57BL6 female mice [2]; Round 1
  Number of mating rounds required to achieve pregnancy: 60%
C57BL6 female mice [2]; Round 2
  Number of mating rounds required to achieve pregnancy: 80%
C57BL6 female mice [2]; Round 3
  Number of mating rounds required to achieve pregnancy: 88%
C57BL6 female mice [2]; day 12 of age
  Body weight of pups born to females receiving NMN: no difference in body weight
C57BL6 female mice [3]
  Numbers of cumulus oocyte complexes released from mice: completely rescued and 16 and 14 and 17 and 12 and 13 and 11
Oocytes [4]; 1 h after release from IBMX
  Proportion of harvested oocytes achieving germinal vesicle breakdown: 45 % of total
Oocytes [4]; 2 h after release from IBMX
  Proportion of harvested oocytes achieving germinal vesicle breakdown: 83 % of total
Oocytes [4]; 14 hr following completion of GVBD
  Proportion of harvested oocytes achieving polar body extrusion: 48 % of total
Oocytes [4]; 16 hr following completion of GVBD
  Proportion of harvested oocytes achieving polar body extrusion: 60 % of total
Oocytes [4]; 20 hr following completion of GVBD
  Proportion of harvested oocytes achieving polar body extrusion: 91 % of total
C57BL6 females
  Number of pups born (cisplatin followed by NMN): complete restoration
[5]
  COC (oocyte) yield in aged females: more than doubled; also recorded: dramatically increased
Oocytes / blastocysts; 8 month old C57BL6, NMN 2 g/L drinking water versus 10 mg daily gavage, 10 days
  Efficacy on blastocyst formation after IVF: drinking water versus single daily oral gavage: better efficacy
Oocytes / blastocysts; NMN 2 g/L drinking water for 48 hours, 1, 2, 4 weeks
  Efficacy versus length of NMN administration (inner cell mass cell number of blastocysts): time dependent increase in efficacy
Oocytes / blastocysts; oocytes from NMN treated versus untreated mice
  Ability of oocytes to form blastocysts following fertilisation in vitro: enhanced ability to form blastocysts
